Data reported in patent US20090130707A1, “Methods of reducing the inhibitory effect of a redox active metal ion on the enzymatic hydrolysis of cellulosic material” (priority 2007, published 2009).
Like-named read-outs stand apart in the source and are kept apart here.

How the values were obtained:
[1] = cited from earlier work; for Radius: ionic radii in crystals, 6-ligand coordination
[2] = system: Cellulolytic Enzyme Composition #1; test: mini-plate-scale AVICEL hydrolysis by Cellulolytic Enzyme Composition #1; type: biochemical, Trichoderma reesei; conditions: for Effect on hydrolysis (in words) / Effect on enzymatic cellulolysis: loss in initial rate / Effect on enzymatic cellulolysis: loss in extended hydrolysis extent / Effect on enzymatic cellulolysis: gain in initial rate / Effect on enzymatic cellulolysis: gain in extended hydrolysis extent: 10 mM; for Effect on enzymatic cellulolysis: loss in initial rate / Effect on enzymatic cellulolysis: loss in extended hydrolysis extent / Effect on enzymatic cellulolysis: gain in initial rate / Effect on enzymatic cellulolysis: gain in extended hydrolysis extent: 25 g AVICEL and 0.25 g enzyme per liter, pH 5, 50° C.; for Effect on enzymatic cellulolysis: loss in extended hydrolysis extent / Effect on enzymatic cellulolysis: gain in extended hydrolysis extent: after 4 days; for IC50: AVICEL hydrolysis, 0.2 to 2 mM inhibitor
Method: (§1) Various (biologically common) divalent metal cations with variable ionic radii were tested in 2.8 ml Deep Well Microplates (VWR International, West Chester, Pa., USA) (“mini-plate-scale”) containing 1 ml suspensions of 25 g of AVICEL® per liter in 50 mM sodium acetate pH 5 at 50° C. Cellulolytic Enzyme Composition #1 was added at 0.25 g per liter for each hydrolysis. The mini-plates were sealed at 160° C. for 2 seconds using an ABGENE® ALPS 300™ sealer (ABgene, Rochester, N.Y., USA). The sealed mini-plates were incubated at 50° C. in an INNOVA® 4080 incubator shaker at 150 rpm. Soluble reducing sugars were measured by HPLC as described in Example 30.
Iron-chelator complexes of variable size or redox property were tested for their ability to inhibit enzymatic hydrolysis of cellulose. […]

[3] = system: Cellulolytic Enzyme Composition #1; test: Pre-incubation of iron ion with PASC or enzyme, then PASC hydrolysis; type: biochemical, Trichoderma reesei
Method: The “pre-incubation” study was also performed for the hydrolysis of PASC. The experiments were similar to those described above, except 2 g of PASC, replacing AVICEL®, and 0.01 g of Cellulolytic Enzyme Composition #1 per liter of 50 mM sodium acetate pH 5, and 3 days pre-incubation were used. All hydrolyses were performed using the “mini-plate-scale” hydrolysis reaction according to the procedure described in Example 32, except for the change in cellulose or cellulase described above.

[4] = system: Cellulolytic Enzyme Composition #1; test: mini-plate-scale PASC hydrolysis by Cellulolytic Enzyme Composition #1; type: biochemical, Trichoderma reesei; conditions: 10 mM; 2 g PASC and 0.01 g enzyme per liter
Method: as §1
In one series of “mini-scale” hydrolysis reactions performed according to the procedure described in Example 30, the effect of 1 mM to 10 mM FeSO4 was evaluated in the hydrolysis of AVICEL® by Cellulolytic Enzyme Composition #1. In a series of “mini-plate-scale” hydrolysis reactions performed according to the procedure described in Example 32, the effect of 1 mM to 10 mM FeSO4 was evaluated in the hydrolysis of PASC by Cellulolytic Enzyme Composition #1, except 2 g of PASC and 0.05 g Cellulolytic Enzyme Composition #1 per liter of 50 mM sodium acetate pH 5 were used.
The above study was extended to a range of concentration of Fe(II) and cellulose. In a series of “mini-plate-scale” hydrolysis reactions performed according to the procedure described in Example 32, except that 0.1 to 10 mM FeSO4, 0.6 to 4 g of PASC and 0.01 g of Cellulolytic Enzyme Composition #1 per liter of 50 mM sodium acetate pH 5 were used.

[5] = system: Cellulolytic Enzyme Composition #1; test: Pre-incubation of iron ion with AVICEL or enzyme, then AVICEL hydrolysis; type: biochemical, Trichoderma reesei
Method: To test whether Fe(II) affects cellulose or cellulase, 10 mM FeCl2 was pre-incubated with either 25 g of AVICEL® or 0.25 g of Cellulolytic Enzyme Composition #1 per liter of 50 mM sodium acetate pH 5 for three days. “Fe-pretreated” AVICEL® was washed and Cellulolytic Enzyme Composition #1 was gel-filtered using BioSpin 6 desalting columns (Bio-Rad, Hercules, Calif., USA) to remove residual Fe ion. Fe-pretreated AVICEL® was hydrolyzed with fresh Cellulolytic Enzyme Composition #1 or Cellulolytic Enzyme Composition #1 subjected to “FeCl2-less” pre-incubation and gel filtration. Fe-pretreated Cellulolytic Enzyme Composition #1 was applied to hydrolyze fresh AVICEL® or AVICEL® subjected to “FeCl2-less” pre-incubation and washing, in comparison with the hydrolysis of fresh AVICEL® ([…]) by fresh Cellulolytic Enzyme Composition #1 ([…]), with or without 10 mM FeCl2. All hydrolyses were performed using the “mini-plate-scale” hydrolysis reaction procedure described in Example 32, except for the change in cellulose or cellulase described above.
To test whether Fe(III) affected cellulose or cellulase, 10 mM FeCl3 was pre-incubated with either 25 g of AVICEL® or 0.25 g of Cellulolytic Enzyme Composition #1 per liter of 50 mM sodium acetate pH 5 for three days. All hydrolyses were performed using the “mini-plate-scale” hydrolysis reactions according to the procedure described in Example 32, except for the change in cellulose or cellulase described above.

[6] = single-electron redox potential vs NHE
[7] = single-electron oxidation potential of iron-chelator complexes
[8] = read-out: I50 estimated based on limited data
[9] = fresh salt, PASC, enzyme fresh or buffer pre-incubated
[10] = pre-incubated 3 days with Cellulolytic Enzyme Composition #1
[11] = 10 mM fresh salt, fresh AVICEL, fresh enzyme
[12] = 10 mM, pre-incubated three days with AVICEL
[13] = 10 mM, pre-incubated three days with Cellulolytic Enzyme Composition #1

Molecule | Radius [1] [Å] | E° [1, 6] [V] | Effect on hydrolysis (in words) [2] | Effect on enzymatic cellulolysis: loss in initial rate [2] | Effect on enzymatic cellulolysis: loss in extended hydrolysis extent [2] | IC50 ([2]; read-out: I50) [µM] | other results
[Cl][Ni][Cl] [Ni(II), NiCl2] | 0.69 | −1.56 | slight or moderate inhibition | ~20% | ~10% | – | –
O=S(=O)([O-])[O-].[Cu+2] [Cu(II), CuSO4] | 0.73 | 0.153 | – | ~90% | ~80% | 200 | –
O=S(=O)([O-])[O-].[Mn+2] [Mn(II), MnSO4] | 0.67 | – | slight or moderate inhibition | ~10% | no change | – | E° ([1]; 2-electron E° (in parenthesis)): (−1.185) V; Effect on hydrolysis over concentration range ([2]; 0.1 to 10 mM): no effect
[Ca+2].[Cl-].[Cl-] [Ca(II), CaCl2] | 1.00 | −0.96 | slight enhancement | – | – | – | Effect on enzymatic cellulolysis: gain in initial rate [2]: ~20% gain in initial rate, ~20% gain in extended hydrolysis extent; Effect on enzymatic cellulolysis: gain in extended hydrolysis extent [2]: ~20% gain in initial rate, ~20% gain in extended hydrolysis extent
O=C([O-])CN(CCN(CC(=O)[O-])CC(=O)[O-])CC(=O)[O-].[Fe+2].[Na+].[Na+] [Fe(II)Na2EDTA, FeNa2EDTA] | – | – | – | ~80% loss in initial rate, ~80% loss in extended hydrolysis extent | ~80% loss in initial rate, ~80% loss in extended hydrolysis extent | – | E° [1, 7]: (=Fe(III)NaEDTA's); IC50 [2, 8]: < 10000 µM
[Cl][Cr]([Cl])[Cl] [Cr(III), CrCl3] | 0.62 | −0.407 | moderate | ~40% loss in initial rate, ~40% loss in extended hydrolysis extent | ~40% loss in initial rate, ~40% loss in extended hydrolysis extent | – | IC50 [2, 8]: > 10000 µM
Fe(2,2′-bipyridyl)3Cl3 [Fe(III)(2,2′BP)2Cl3] | – | – | – | ~100% loss in initial rate, ~100% loss in extended hydrolysis extent | ~100% loss in initial rate, ~100% loss in extended hydrolysis extent | 600 ± 100 | E° [1, 7]: 0.78 V
O=S(=O)([O-])[O-].[Zn+2] [Zn(II), ZnSO4] | 0.74 | −2.3 | slight or moderate inhibition | ~20% loss in initial rate, ~20% loss in extended hydrolysis extent | ~20% loss in initial rate, ~20% loss in extended hydrolysis extent | – | –
Fe(2,2′-bipyridyl)3Cl2 [Fe(II)(2,2′BP)2Cl2] | – | – | – | ~40% loss in initial rate, ~40% loss in extended hydrolysis extent | ~40% loss in initial rate, ~40% loss in extended hydrolysis extent | 20000 | –
quinone [reference compound] | – | – | – | – | – | – | IC50 [2, 8]: ~5000 µM
O=S(=O)([O-])[O-].[Co+2] [Co(II), CoSO4] | 0.65 | – | slight or moderate inhibition | ~10% | no change | – | E° ([1]; 2-electron E° (in parenthesis)): (−0.28) V
[Cl-].[Cl-].[Mg+2] [Mg(II), MgCl2] | 0.72 | −0.33 | slight enhancement | – | – | – | Effect on enzymatic cellulolysis: gain in initial rate [2]: ~20% gain in initial rate, ~20% gain in extended hydrolysis extent; Effect on enzymatic cellulolysis: gain in extended hydrolysis extent [2]: ~20% gain in initial rate, ~20% gain in extended hydrolysis extent
[Cl][Fe]([Cl])[Cl] [Fe(III), FeCl3] | 0.55 | 0.771 | – | ~90% loss in initial rate, ~90% loss in extended hydrolysis extent | ~90% loss in initial rate, ~90% loss in extended hydrolysis extent | 500 ± 400 | loss in extent of hydrolysis [3, 9]: approximately 30%; loss in initial rate [3, 9]: ~70%; loss in extent of hydrolysis [3, 10]: no loss; loss in initial rate [3, 10]: ~50%; loss in extent of hydrolysis ([3]; pre-incubated 3 days with PASC): ~10%; loss in initial rate ([3]; pre-incubated 3 days with PASC): ~50%; loss of extent of hydrolysis after 4 days [4]: ~80%; loss of initial hydrolysis rate [4]: ~80%; Effect on enzymatic cellulolysis: loss in extended hydrolysis extent ([2]; listed as FeCl3): ~90%; Effect on enzymatic cellulolysis: loss in initial rate ([2]; listed as FeCl3): ~90%; loss in extent of hydrolysis [5, 11]: ~90%; loss in initial rate [5, 11]: ~90%; loss in extent of hydrolysis [5, 12]: ~80%; loss in initial rate [5, 12]: ~80%; loss in extent of hydrolysis [5, 13]: ~20%; loss in initial rate [5, 13]: ~20%
[Cl][Ru]([Cl])[Cl] [Ru(III), RuCl3] | 0.68 | 0.249 | pronounced | ~90% | ~80% | 150 | –
O=C([O-])CN(CCN(CC(=O)[O-])CC(=O)[O-])CC(=O)[O-].[Fe+3].[Na+] [Fe(III)NaEDTA, FeNa(EDTA)] | – | – | – | ~10% | ~20% | – | E° [1, 7]: 0.13^2 V; IC50 [2, 8]: ~10000 µM
